Key:
[1] = test system: BV-2; experiment: Antiinflammatory activity against mouse BV-2 cells assessed as reduction in LPS-induced NO production incubated for 24 hrs by Griess reagent based assay; type: functional, cell-based; settings: BV-2, 24 h
[2] = Cytotoxicity against mouse BV-2 cells assessed as reduction in cell growth; type: toxicity, cell-based

SMILES	IC50 [1]	CC50 [2]
CC1=C(C)[C@]2(C=CC1=O)C[C@@]1(O)[C@H](C)CO[C@@]1(O)C2	8.1 µM	> 50 µM
CO[C@]12C=C3C=CC(=O)[C@@H](C)[C@@]3(C)C[C@@]1(O)[C@H](C)CO2 [MICROSPHAEROPSISIN]	80 µM	> 50 µM
CO[C@]12C=C3C=CC(=O)[C@H](C)[C@@]3(C)C[C@@]1(O)[C@H](C)CO2	4.6 µM	> 50 µM
CC(=O)OC[C@@H](C)[C@]1(O)C[C@@]2(C)C(=CC1=O)C=CC(=O)[C@H]2C	7.7 µM	> 50 µM
COc1cc(/C=C/C(=O)CC(=O)/C=C/c2ccc(O)c(OC)c2)ccc1O [CURCUMIN]	8.6 µM	> 50 µM
C[C@H](CO)C1=C[C@@]2(C)C(=CC1=O)C=CC(=O)[C@H]2C	40 µM	> 50 µM

More lines, main results first:

IC50 [1]	SMILES	CC50 [2]
8.1 µM	C[C@H](CO)[C@@H]1C[C@@]2(C)C(=CC1=O)C=CC(=O)[C@H]2C	> 50 µM
6.9 µM	CO[C@]12C=C3C=C(C4=CC5=C[C@]6(OC)OC[C@@H](C)[C@]6(O)C[C@]5(C)[C@@H](C)C4=O)C(=O)[C@@H](C)[C@@]3(C)C[C@@]1(O)[C@H](C)CO2	> 50 µM
2.8 µM	CC(=O)OC[C@@H](C)[C@]1(O)C[C@@]2(C)C(=CC1=O)[C@@H]1[C@H](C(=O)[C@@H]2C)[C@H]2C(=O)[C@H](C)[C@@]3(C)C[C@@](O)([C@H](C)COC(C)=O)C(=O)C=C3[C@H]21	> 50 µM
98 µM	C=C(C)[C@]1(O)C[C@@]2(C)C(=C[C@H]1O)C=CC(=O)[C@@H]2C	> 50 µM
